# Test results reported in patent US10287279B2, “Inhibitors of human 12/15-lipoxygenase” (THE GENERAL HOSPITAL CORPORATION, priority 2013, dated 2019).
# “Also recorded” adds a separate entry of the source. Read-outs that look alike come from different tables or passages of the source.
# Columns and labels:
# [1] = tested on: warfarin-pretreated mice subjected to transient focal ischemia; assay: Warfarin-associated hemorrhage following experimental stroke (transient focal ischemia); type: in vivo, mouse
# Description: A) In warfarin-pretreated mice subjected to transient focal ischemia with 3 h occlusion, 50 mg/kg ML351 was administered by i.p. injection 3 h after onset of ischemia (FIG. 9A). This mimics the situation of a patient on warfarin who experiences a severe stroke with hemorrhagic transformation.
# B) To investigate if administering tPA to patients with an ischemic stroke who are on warfarin can be made safe, warfarin-pretreated mice were subjected to 2 h of transient focal ischemia, then treated with tPA 4 h after onset of ischemia, and administered 50 mg/kg ML351 by i.p. injection concurrently with tPA.
# [2] = Aqueous kinetic solubility; conditions: PBS buffer (pH 7.4)
# [3] = Microsomal stability, rat liver microsomes; conditions: absence of NADPH; 1 hr period; species not distinguished
# [4] = Stability in aqueous solutions; conditions: pH 2, pH 7.4, pH 9
# [5] = tested on: mouse hippocampal HT22 cells; assay: HT22 cell culture assay, glutamate-induced cell death (LDH release); type: cell-based; conditions: for protection against oxidative glutamate toxicity in HT22 cells: 5 mM glutamate, increasing amounts or concentration not stated
# Source text: Glutamate-induced oxidative stress^67-69 leads to time-dependent cell death mediated by 12/15-LOX in both immature primary neurons and mouse hippocampal HT22 cells.^38,46,70 Primary neurons require a lengthy isolation procedure and also show relatively modest increases in cell death in this assay, indicating they are not suited for a high-throughput testing approach. In contrast, HT22 cells grow quickly and consistently feature low cell death under control conditions, but a majority of cells die after glutamate treatment (50-100%). This assay can be adapted to 96-well plates, allowing for moderate to high throughput against the screened compounds. The characteristic Z′ score used to evaluate the technical quality and suitability as screening tool averaged 0.77 over ten experiments (SD=0.13; range, 0.49-0.94), where values above 0.5 indicate an excellent assay.^71
# Treatment consisted of exchanging the medium to 100 μl fresh culturing medium and adding 5 mM glutamate (stock solution 0.5 M in PBS) in the presence or absence of DMSO (maximum 0.1% final concentration) as control or the indicated concentrations of 1. […] Three independent experiments were evaluated. […] The eicosanoids containing fractions were transferred to scintillation vials followed by addition of perdeuterated 13-HODE (13-d31-HODE), as an internal control for extraction and 1.5% glacial acetic acid for protein precipitation. […] The dry samples were then re-constituted in methanol and an internal control 12-deuterated (d8)-HETE (12-d8-HETE), was added to each sample for detector response variation and it was assumed that the change in detector response for 12-HETE and 12-d8-HETE would be similar. […] The Collision Induced Dissociation (CID) was used for MS-MS with collision energy of 35 eV.
# [6] = molecular target: human platelet 12-lipoxygenase (12-LOX) (Homo sapiens (Human), UniProt P18054); assay: Lipoxygenase UV-Vis assay, 12-LOX; type: biochemical; conditions: selectivity profiling
# Description: (§1) Human 5-lipoxygenase (5-LOX) was expressed as a non-tagged protein and used as a crude ammonium sulfate protein fraction, as published previously.^77
# (§2) The inhibitor compounds were screened initially using one concentration point on a Perkin-Elmer Lambda 40 UV-Vis spectrometer. […] The reactions were initiated by adding either of ˜40 nM 12-LOX, 40 nM 12/15-LOX, 0.5 μM 15-LOX-2 or ˜200 nM 5-LOX (ammonium sulfate suspension) to a cuvette with a 2 mL reaction buffer constantly stirred using a magnetic stir bar at room temperature (22° C.). […] Inhibitors were stored at −20° C. in DMSO.
# [7] = In vivo PK (mouse) at 30 mpk IP
# [8] = tested on: filament model of transient focal ischemia; assay: Filament model of transient focal ischemia; type: in vivo, mouse; conditions: 90 minutes ischemia, sacrifice at 24 hours
# [9] = tested on: mouse distal MCAO model of permanent focal ischemia; parameters: species or system C57B16J mice; conditions: in vivo
# Description: To study 1 in a model of distal middle cerebral artery occlusion (distal MCAO), ^74 C57B16J mice were treated with ferric chloride (FeCl3) to cause occlusion of the distal middle cerebral artery. […] The body temperature was monitored by a rectal probe and maintained at 37±0.3° C. by a homoeothermic blanket control unit. Briefly, mice were placed in a stereotaxic frame, the scalp was opened and right temporal muscle was dissected. The area between zygomatic arch and squamous bone was thinned by a high-speed drill and cooled with saline. The trace of MCA was visualized and thin bony film was lifted up by forceps. After that a laser-Doppler flowmetry probe was placed 2 mm posterior, 6 mm lateral to the bregma to monitor the regional cerebral blood flow (rCBF). After obtaining a stable epoch of the pre-ischemic rCBF, a piece of 10% FeCl3 saturated filter paper was placed over the intact dura mater along the trace of MCA and the rCBF was continuously monitored during the next 3 hours. After 2 hours of ischemia, either 50 mg/kg 1, or DMSO vehicle was injected intraperitoneally. Following sacrifice at 24 hours, brains were sectioned into 1 mm slices, and infarct sizes were determined by staining with 2,3,5-triphenyltetrazolium chloride (TTC), using the indirect method (infarct volume=contralateral volume minus uninfarcted ipsilateral volume). […]
# Caco-2 permeability = conditions: human
# [10] = molecular target: human reticulocyte 15-lipoxygenase-1 (12/15-LOX) (Homo sapiens (Human), UniProt P16050); assay: Lipoxygenase UV-Vis cuvette-based assay, 12/15-LOX; type: biochemical; conditions: for 12/15-LOX inhibition in words: SAR discussion, human 12/15-LOX
# Description: as §1, §2
# [11] = molecular target: Human 5-lipoxygenase (5-LOX) (Homo sapiens (Human), UniProt P09917); assay: Lipoxygenase UV-Vis assay, 5-LOX; type: biochemical; conditions: selectivity profiling
# Description: as §1, §2
# [12] = molecular target: human epithelial 15-lipoxygenase-2 (15-LOX-2) (Homo sapiens (Human), UniProt O15296); assay: Lipoxygenase UV-Vis assay, 15-LOX-2; type: biochemical; conditions: selectivity profiling
# Description: as §1, §2
# [13] = male, CD1, mouse, brain, ip, 30 mg/kg
# [14] = male, CD1, mouse, plasma, ip, 30 mg/kg
# [15] = UV-Vis cuvette-based assay in triplicate, 10 μM AA, read-out: IC50 (μM) [±SD (μM)]
# human platelet 12-lipoxygenase (12-LOX), sequence (P18054 whole entry): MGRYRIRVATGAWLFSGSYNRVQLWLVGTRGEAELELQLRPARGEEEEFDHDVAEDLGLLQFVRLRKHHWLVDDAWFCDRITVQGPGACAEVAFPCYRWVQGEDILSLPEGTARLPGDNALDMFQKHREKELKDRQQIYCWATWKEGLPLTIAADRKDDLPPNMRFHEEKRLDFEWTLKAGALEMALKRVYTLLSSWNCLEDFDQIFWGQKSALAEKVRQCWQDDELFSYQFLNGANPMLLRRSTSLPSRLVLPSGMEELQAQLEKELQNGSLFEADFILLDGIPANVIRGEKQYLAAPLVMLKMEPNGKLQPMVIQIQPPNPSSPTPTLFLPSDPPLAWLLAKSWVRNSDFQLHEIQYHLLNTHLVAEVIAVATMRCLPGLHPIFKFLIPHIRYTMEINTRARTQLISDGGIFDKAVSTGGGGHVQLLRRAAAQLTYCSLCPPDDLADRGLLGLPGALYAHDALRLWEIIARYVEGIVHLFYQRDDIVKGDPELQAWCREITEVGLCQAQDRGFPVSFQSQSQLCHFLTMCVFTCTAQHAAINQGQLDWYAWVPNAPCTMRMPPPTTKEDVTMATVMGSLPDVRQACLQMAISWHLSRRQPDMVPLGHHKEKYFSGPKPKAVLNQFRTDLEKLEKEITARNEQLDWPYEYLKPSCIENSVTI
# human reticulocyte 15-lipoxygenase-1 (12/15-LOX), sequence (P16050 whole entry): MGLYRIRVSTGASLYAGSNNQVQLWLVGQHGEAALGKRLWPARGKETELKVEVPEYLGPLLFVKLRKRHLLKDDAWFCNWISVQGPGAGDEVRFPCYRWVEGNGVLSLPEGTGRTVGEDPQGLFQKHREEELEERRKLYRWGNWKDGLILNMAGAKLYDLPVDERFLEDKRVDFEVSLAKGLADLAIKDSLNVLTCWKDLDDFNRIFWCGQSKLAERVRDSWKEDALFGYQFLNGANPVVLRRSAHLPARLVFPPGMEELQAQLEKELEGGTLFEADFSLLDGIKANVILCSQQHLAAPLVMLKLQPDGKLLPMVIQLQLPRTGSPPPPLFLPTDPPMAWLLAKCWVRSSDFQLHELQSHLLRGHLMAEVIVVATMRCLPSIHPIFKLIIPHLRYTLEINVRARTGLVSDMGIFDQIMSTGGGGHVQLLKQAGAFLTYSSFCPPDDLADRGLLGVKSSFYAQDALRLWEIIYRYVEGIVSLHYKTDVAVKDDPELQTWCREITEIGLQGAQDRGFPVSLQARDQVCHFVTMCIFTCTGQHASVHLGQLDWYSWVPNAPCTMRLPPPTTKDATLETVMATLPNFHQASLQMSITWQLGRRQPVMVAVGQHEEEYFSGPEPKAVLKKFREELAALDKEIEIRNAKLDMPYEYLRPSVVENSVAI
# Human 5-lipoxygenase (5-LOX), sequence (P09917 whole entry): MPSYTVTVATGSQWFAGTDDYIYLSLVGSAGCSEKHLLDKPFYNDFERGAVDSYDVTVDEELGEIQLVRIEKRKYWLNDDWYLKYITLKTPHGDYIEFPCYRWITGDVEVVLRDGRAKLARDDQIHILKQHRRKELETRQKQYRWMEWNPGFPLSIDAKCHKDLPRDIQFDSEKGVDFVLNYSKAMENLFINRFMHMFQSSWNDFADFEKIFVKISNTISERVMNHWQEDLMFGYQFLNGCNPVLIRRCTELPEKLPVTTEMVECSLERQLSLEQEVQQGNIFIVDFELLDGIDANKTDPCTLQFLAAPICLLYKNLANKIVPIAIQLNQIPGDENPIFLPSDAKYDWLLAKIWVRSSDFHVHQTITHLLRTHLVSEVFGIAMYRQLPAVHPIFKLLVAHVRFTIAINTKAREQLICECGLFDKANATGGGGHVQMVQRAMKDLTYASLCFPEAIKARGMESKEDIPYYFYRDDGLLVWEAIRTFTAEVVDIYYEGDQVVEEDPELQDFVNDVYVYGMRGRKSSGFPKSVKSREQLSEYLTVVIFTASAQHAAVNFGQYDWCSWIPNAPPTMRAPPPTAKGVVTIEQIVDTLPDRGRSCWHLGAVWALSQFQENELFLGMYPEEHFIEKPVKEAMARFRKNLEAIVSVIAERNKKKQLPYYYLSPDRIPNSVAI
# human epithelial 15-lipoxygenase-2 (15-LOX-2), sequence (O15296 whole entry): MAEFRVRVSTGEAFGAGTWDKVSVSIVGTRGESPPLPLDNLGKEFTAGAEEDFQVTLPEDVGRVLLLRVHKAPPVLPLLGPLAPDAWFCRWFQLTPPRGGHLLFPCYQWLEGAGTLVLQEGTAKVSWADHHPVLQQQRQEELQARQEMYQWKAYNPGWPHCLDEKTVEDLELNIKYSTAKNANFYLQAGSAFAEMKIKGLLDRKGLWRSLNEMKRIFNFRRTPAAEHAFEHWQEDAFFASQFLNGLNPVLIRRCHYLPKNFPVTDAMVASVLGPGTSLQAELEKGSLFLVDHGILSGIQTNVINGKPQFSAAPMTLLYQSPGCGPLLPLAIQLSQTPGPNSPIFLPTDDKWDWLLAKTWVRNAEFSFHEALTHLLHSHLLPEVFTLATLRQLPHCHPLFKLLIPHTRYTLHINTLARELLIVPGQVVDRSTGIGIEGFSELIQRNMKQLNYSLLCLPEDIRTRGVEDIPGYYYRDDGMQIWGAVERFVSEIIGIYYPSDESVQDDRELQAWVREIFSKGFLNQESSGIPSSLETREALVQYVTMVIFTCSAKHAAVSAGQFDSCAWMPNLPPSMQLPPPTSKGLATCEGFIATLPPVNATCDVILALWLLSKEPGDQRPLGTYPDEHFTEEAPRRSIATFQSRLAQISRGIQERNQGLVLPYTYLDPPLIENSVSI
smiles,measurement,setting,value
"CNc1oc(-c2cccc3ccccc23)nc1C#N [Compound 1, 5-(Methylamino)-2-(naphthalen-1-yl)oxazole-4-carbonitrile]",hemorrhage in the ischemic hemisphere of warfarin-treated mice treated with tPA,"[1]; 2 h ischemia, tPA 4 h after onset, 50 mg/kg i.p. concurrently with tPA",significantly reduced
same,hemorrhage in the ischemic hemisphere of warfarin-treated mice,"[1]; 3 h occlusion, 50 mg/kg i.p. 3 h after onset of ischemia",significantly reduced
same,Mouse Plasma Stability remaining at 2 hours,Mouse plasma stability,100%
same,Kinetic Solubility,[2],1.2 µM
same,microsomal stability without NADPH,[3],no degradation
same,stability in aqueous solutions,[4],stable
same,cellular protection in HT22 cells,[5]; 5 μM concentration,cellular protection
same,protection against oxidative glutamate toxicity in HT22 cells,[5],protective against oxidative glutamate toxicity; also recorded: dose-dependent protection
same,IC50,[6],> 100 µM
same,AUC(0-inf),[7]; [13],35.5 µM·h
same,Tmax,[7]; [13],30 min
same,half-life,"[7]; male, CD1, mouse, brain, ip, 30 mg/kg, T1/2 (Brain), mouse, 30 mpk IP",~60 min
same,AUC(0-inf),[7]; [14],13 µM·h
same,Cmax,[7]; [14],13.8 µM
same,Tmax,[7]; [14],15 min
same,half-life,"[7]; male, CD1, mouse, plasma, ip, 30 mg/kg, T1/2 (Plasma), mouse, 30 mpk IP",~60 min
same,Cmax (Brain),"[7]; mouse, 30 mpk IP, brain",28.8 µM
same,"infarct size, transient focal ischemia",[8]; 10 mg/kg,did not change the infarct
same,"infarct size, transient focal ischemia",[8]; 25 mg/kg,significantly protective
same,"infarct size, transient focal ischemia",[8]; 50 mg/kg,significantly protective
same,Permeability (PAMPA),PAMPA permeability,723 10^−6 cm/s
same,"infarct size, permanent focal ischemia",[9],significantly reduced infarct size
same,Papp,Caco-2 permeability,1.5 ×10⁻⁶ cm/s
"CNc1oc(-c2ccc3ccccc3c2)nc1C#N [Compound 2, 5-(Methylamino)-2-(naphthalen-2-yl)oxazole-4-carbonitrile]",IC50,[10],> 30 µM
"CNc1oc(-c2cccc3cnccc23)nc1C#N [Compound 3, 2-(Isoquinolin-5-yl)-5-(methylamino)oxazole-4-carbonitrile]",IC50,[10]; [15],> 30 µM
"CNc1oc(-c2cccc3nccnc23)nc1C#N [Compound 6, 5-(Methylamino)-2-(quinoxalin-5-yl)oxazole-4-carbonitrile]",IC50,[10]; [15],> 40 µM
"CNc1oc(-c2cccc(Cl)c2Cl)nc1C#N [Compound 7, 2-(2,3-Dichlorophenyl)-5-(methylamino)oxazole-4-carbonitrile]",IC50,[11],> 100 µM
same,protection against glutamate-induced cell death in HT22 cells,[5]; concentration of 10 μM,some protection
"CNc1oc(-c2ccc(Cl)c(Cl)c2)nc1C#N [Compound 8, 2-(3,4-Dichlorophenyl)-5-(methylamino)oxazole-4-carbonitrile]",protection against glutamate-induced cell death in HT22 cells,[5]; concentrations of 2 to 10,dose-dependent cell protective effect
"CNc1oc(-c2ccc3c(c2)OCCO3)nc1C#N [Compound 9, 2-(2,3-Dihydrobenzo[b][1,4]dioxin-6-yl)-5-(methylamino)oxazole-4-carbonitrile]",IC50,[10]; [15],> 40 µM
"CNc1oc(-c2ccc(-c3ccccc3)cc2)nc1C#N [Compound 11, 2-([1,1′-Biphenyl]-4-yl)-5-(methylamino)oxazole-4-carbonitrile]",protection against oxidative glutamate toxicity in HT22 cells,[5],protected HT22 cells against oxidative stress
same,12/15-LOX inhibition in words,[10],did not inhibit human 12/15-LOX
"CNc1oc(-c2ccc3cc[nH]c3c2)nc1C#N [Compound 13, 2-(1H-indol-6-yl)-5-(methylamino)oxazole-4-carbonitrile]",IC50,[10],> 40 µM
"CC(C)Nc1oc(-c2cccc3ccccc23)nc1C#N [Compound 26, 5-(Isopropylamino)-2-(naphthalen-1-yl)oxazole-4-carbonitrile]",12/15-LOX inhibition in words,[10],significantly reduced the potency
"N#Cc1nc(-c2cccc3ccccc23)oc1NC1CNC1 [Compound 31, 5-(Azetidin-3-ylamino)-2-(naphthalen-1-yl)oxazole-4-carbonitrile]",protection against oxidative glutamate toxicity in HT22 cells,[5],protected HT22 cells against oxidative stress
same,12/15-LOX inhibition in words,[10],did not inhibit human 12/15-LOX
"CNc1sc(-c2cccc3ccccc23)nc1C#N [Compound 32, 5-(methylamino)-2-(naphthalen-1-yl)thiazole-4-carbonitrile]",IC50,[6],> 40 µM
same,IC50,[12],> 100 µM
